# Source: PMC5441637, “The mitochondrial SIR2 related protein 2 (SIR2RP2) impacts Leishmania donovani growth and infectivity” (PLoS Neglected Tropical Diseases, 2017)
# Target: T1, SIR2 related protein 2 (LdSIR2RP2) (Leishmania donovani, UniProt A0A3S7WXV8)
# T1 construct: gene LdCL_230021600; full-length recombinant LdSIR2RP2 (complete ORF, 320 aa; MBP/His tag removed by TEV)
# Assay: […]NAD+ ADP-ribosyltransferase assay on calf thymus histones, SDS-PAGE/PhosphorImager
# Type: biochemical
# T1 sequence (A0A3S7WXV8 entry or part of it): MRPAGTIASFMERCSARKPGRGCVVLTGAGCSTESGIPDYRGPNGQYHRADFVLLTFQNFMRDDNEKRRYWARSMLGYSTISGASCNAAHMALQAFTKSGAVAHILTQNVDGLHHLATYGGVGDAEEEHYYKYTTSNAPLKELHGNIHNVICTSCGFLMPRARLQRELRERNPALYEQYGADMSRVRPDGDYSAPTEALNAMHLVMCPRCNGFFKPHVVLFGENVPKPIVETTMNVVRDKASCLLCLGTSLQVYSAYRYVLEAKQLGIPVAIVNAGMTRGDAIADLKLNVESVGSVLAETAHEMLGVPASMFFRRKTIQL
row,Structure (SMILES),"[32P]NAD+ ADP-ribosyltransferase assay on calf thymus histones, SDS-PAGE/Phospho"
1,"NC(=O)C1CCCc2c1[nH]c1ccc(Cl)cc21 (stereo not drawn) [Ex-527, 6-chloro-2,3,4,9-tetrahydro-1H-carbazole-1-carboxamide]",~ 50 μM
2,O=c1[nH]c(=S)[nH]c(-c2ccccc2)c1Cc1c(O)ccc2ccccc12 [cambinol],~ 2.5 μM
3,NC(=O)c1cccnc1 [nicotinamide],~ 50 μM
